Active and inactive are the calls of the source. The calls are words filed in the database; no cut-off is given here.
Assays:
[1] = test system: Mus musculus; experiment: Antiinflammatory activity against PLA2-induced Swiss mouse paw edema at 5 mg/kg, ip administered 30 mins before PLA2 challenge; format: functional; conditions: route intraperitoneal
[2] = test system: Mus musculus; experiment: Antiinflammatory activity against PLA2-induced Swiss mouse paw edema at 5 mg/kg, ip administered 30 mins before PLA2 challenge
[3] = test system: Mus musculus; experiment: Antiinflammatory activity against PLA2-induced Swiss mouse paw edema at 5 mg/kg, ip administered 60 mins before PLA2 challenge; format: functional; conditions: route intraperitoneal
[4] = test system: Mus musculus; experiment: Antiinflammatory activity against TPA-induced Swiss mouse ear edema assessed as reduction in ear swelling at 0.25 mg/ear topically after 4 hrs relative to control; format: functional
[5] = target: T1, Polyunsaturated fatty acid 5-lipoxygenase (Rattus norvegicus) (UniProt P12527); experiment: Inhibition of 5-lipoxygenase in rat leukocytes assessed as inhibition of calcium ionophore A-23187/calcium-stimulated LTB4 production; format: cell-based
T1 sequence (whole entry): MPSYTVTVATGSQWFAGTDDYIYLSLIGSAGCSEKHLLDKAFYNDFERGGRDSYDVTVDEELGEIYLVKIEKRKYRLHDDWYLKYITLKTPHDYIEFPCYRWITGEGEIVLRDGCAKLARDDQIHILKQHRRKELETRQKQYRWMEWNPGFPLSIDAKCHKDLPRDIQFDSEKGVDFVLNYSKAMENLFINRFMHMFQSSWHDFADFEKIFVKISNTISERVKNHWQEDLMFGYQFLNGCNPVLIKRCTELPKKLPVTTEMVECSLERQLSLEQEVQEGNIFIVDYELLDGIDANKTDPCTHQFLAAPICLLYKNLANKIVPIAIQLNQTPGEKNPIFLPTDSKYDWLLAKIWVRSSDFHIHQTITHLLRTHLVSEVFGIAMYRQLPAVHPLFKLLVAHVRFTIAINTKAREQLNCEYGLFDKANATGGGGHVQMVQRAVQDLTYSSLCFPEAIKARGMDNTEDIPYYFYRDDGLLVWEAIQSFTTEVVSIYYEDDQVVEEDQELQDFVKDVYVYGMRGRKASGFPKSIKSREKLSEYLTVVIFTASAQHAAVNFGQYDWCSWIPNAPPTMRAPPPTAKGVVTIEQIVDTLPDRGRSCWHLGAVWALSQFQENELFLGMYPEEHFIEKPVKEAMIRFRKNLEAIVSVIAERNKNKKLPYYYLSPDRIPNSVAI

[6] = target: Prostaglandin G/H synthase 1 (Homo sapiens) (UniProt P23219); experiment: Inhibition of cyclooxygenase 1 in human platelet assessed as 12-hydroxyheptadecatrienoic acid production
[7] = test system: Mus musculus; experiment: Antiinflammatory activity against carrageenan-induced Swiss mouse paw edema at 10 mg/kg, po; format: functional
[8] = test system: Mus musculus; experiment: Antiinflammatory activity against TPA-induced Swiss mouse ear edema assessed as reduction in ear swelling at 0.5 mg/ear topically after 4 hrs relative to control; format: functional

Prostaglandin G/H synthase 1 (Homo sapiens), sequence (P23219 whole entry): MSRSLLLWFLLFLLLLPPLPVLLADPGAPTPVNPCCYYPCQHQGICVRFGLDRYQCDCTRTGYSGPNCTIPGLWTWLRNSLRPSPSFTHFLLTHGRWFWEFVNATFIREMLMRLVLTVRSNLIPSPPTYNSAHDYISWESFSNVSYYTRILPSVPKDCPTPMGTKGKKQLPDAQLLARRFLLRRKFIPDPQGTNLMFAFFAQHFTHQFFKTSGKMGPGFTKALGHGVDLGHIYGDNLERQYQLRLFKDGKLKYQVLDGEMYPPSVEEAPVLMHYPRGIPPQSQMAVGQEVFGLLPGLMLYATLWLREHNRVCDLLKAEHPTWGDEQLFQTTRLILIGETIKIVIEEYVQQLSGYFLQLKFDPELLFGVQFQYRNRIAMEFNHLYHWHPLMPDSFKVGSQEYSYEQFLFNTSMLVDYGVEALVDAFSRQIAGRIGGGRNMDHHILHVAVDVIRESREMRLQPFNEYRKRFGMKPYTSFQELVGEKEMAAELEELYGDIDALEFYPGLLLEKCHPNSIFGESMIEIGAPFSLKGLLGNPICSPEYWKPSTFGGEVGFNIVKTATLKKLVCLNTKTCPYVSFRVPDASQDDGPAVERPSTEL

Compound | inhibition in vivo at 5 mg/kg [1] [%] | inhibition in vivo at 5 mg/kg [2] [%] | inhibition in vivo at 5 mg/kg [3] [%] | inhibition (INH) [4] [%] | Activity [5] | Activity [6] | inhibition in vivo at 10 mg/kg [7] [%] | inhibition (INH) [8] [%]
CN1CCC(=C2c3ccccc3C=Cc3ccccc32)CC1 [CYPROHEPTADINE] | 82 | 82 |  |  |  |  |  | 
COc1ccc(-c2coc3cc(OC/C=C(\C)CCC(O)C(C)(C)O)ccc3c2=O)cc1 (centres undefined) [GRIFFONIANONE D] | 42 |  | 30 | 77 | inactive | inactive |  | 
COc1ccc2c(c1)c(CC(=O)O)c(C)n2C(=O)c1ccc(Cl)cc1 [INDOMETHACIN] |  |  |  |  |  |  | 60 | 82
